Reference: US20260191815A1, “THIOACRYLAMIDE DERIVATIVES FOR USE IN THE PREVENTION OR TREATMENT OF LIVER FIBROSIS” (CMR CUREDIAB METABOLIC RESEARCH GMBH, priority 2022, published 2026)

What was measured:
[1] = system: alpha-1 type 1 collagen (COL1A1) protein in LX2 cells; assay: Simple Western of COL1A1 protein in TGF-β1-stimulated LX2 hepatic stellate cells; type: cell-based, human; conditions: for upregulation of COL1A1 in TGF-β1-treated LX2 cells: 10 μM, 30 min pretreatment, then 5 ng/ml TGF-β1 for 24 h; for protein abundance of COL1A1: sole treatment 10 μM for 24 h, LX2 cells, no TGF-β1
Description: The human hepatic stellate cell line LX2 was purchased from Merck. The cells were used up to passage ten and incubated under sterile conditions at 37° C. and 5% CO2. The cells were cultivated in medium containing Dulbecco's Modified Eagle's Medium with 4.5 g/l glucose (ThermoFisher), 4 mmol/l glutamine (ThermoFisher), 2% fetal bovine serum (FBS) (Merck), 100 U/ml penicillin and 100 μg/ml streptomycin (Merck). After 2 days, LX2 cells were starved for FBS for 24 h and then pretreated with 10 μM HK1 (Taros Chemicals GmbH & Co. KG) or 10 μM HK3 (Taros Chemicals GmbH & Co. KG) for 30 min. Subsequently, 5 ng/ml recombinant TGF-β1 (R&D Systems, Minneapolis, MN, USA) was added to the hepatic stellate cell cultures for 24 h. LX2 cells were also incubated with 5 ng/ml TGF-β1 alone as positive control for the hepatic stellate cell activation. Recombinant TGF-β1 was dissolved in sterile 4 mmol/l HCl (Merck) containing 0.1% bovine serum albumin (Roth Karlsruhe, Germany) as carrier protein. HK1 and HK3 were dissolved in sterile dimethyl sulfoxide (DMSO) (Sigma-Aldrich, Munich, Germany). Stimulations with 10 μM HK1, 10 μM HK3 and the corresponding vehicles (HCl and DMSO with or without HCl) alone for 24 h were also included as treatments.
For the measurement of the pro-fibrotic proteins, Western Blotting was performed. Proteins were extracted from whole cell lysate of LX2 cells using RIPA lysis buffer containing 50 mmol/l Tris-HCl (pH 8.0), 150 mmol/l NaCl, 1% IGEPAL® CA-630, 0.5% sodium deoxycholate, 0.1% sodium dodecyl sulfate, 10% PhosSTOP Phosphatase Inhibitor Cocktail (Roche, Basel, Switzerland) and 10% cOmplete Mini Protease Inhibitor Cocktail (Roche). Lysates were centrifuged at 14850×g for 15 min at 4° C. Then, the total protein content of the lysates was determined using a bicinchoninic acid protein assay (ThermoFisher Scientific) in accordance with the manufacturer's instructions. The quantification of protein abundance was performed by Simple Western size-based assays using a 12-230 kDa and 66-440 kDa Separation Module (ProteinSimple, San Jose, CA, USA) according to the manufacturer's instructions. This fully automated Western blotting system is based on a capillary electrophoresis technology. The separation, immobilization to the capillary wall via a proprietary, photoactivated capture chemistry and immunodetection of the proteins using a horseradish peroxidase (HRP)-conjugated secondary antibody and chemiluminescent substrate take place directly in the capillary without gel separation and transfer steps to blotting paper. The chemiluminescence is measured at multiple exposure times and automatically quantified by the Compass for Simple Western software (version 4.1.0) (ProteinSimple). The chemiluminescent signal for immunodetected proteins, which can be represented as an electropherogram or virtual blot-like image, is automatically quantified by calculation of the area under the curve of the peak.
The software reports the molecular weight, the area (in an arbitrary unit and in percent) and signal to noise ratio for each protein detected. The primary antibodies for the recognition of endogenous levels of total alpha-1 type 1 collagen (COL1A1) protein (#72026) and total fibronectin 1 (FN1) protein (#26836) were purchased from Cell Signaling Technology (Danvers, MA, USA). The anti-rabbit HRP-linked secondary antibody was from ProteinSimple. […]
Differences were analysed by one-way ANOVA followed by the Tukey method as correction for multiple testing.

[2] = system: caspase 3/7 activity in primary human hepatocytes; assay: Caspase 3/7 activity provoked by palmitate in primary human hepatocytes; type: cell-based; conditions: Hepatocyte, 10 μM pre-treatment + palmitate 200 μM, read-out: caspase 3/7 activity, % of control
Description: The potential protective effect of HK1 and HK3 on caspase 3/7 activity in HepG2 cells and primary human hepatocytes was analysed.
HepG2 cells were obtained from Merck (Darmstadt, Germany) (ECACC-certified), while primary human hepatocytes were obtained from Thermo Fisher Scientific (Waltham, MA, USA), and all were cultured according to the instructions of the respective manufacturers. During experiments, cells were cultured in serum-free medium. Unless otherwise stated, cells were treated with 200 μM bovine serum albumin (BSA)-conjugated palmitate (Cayman Chemicals, Ann Arbor, MI) alone or in combination with 10 μM HK1 (Taros Chemicals GmbH & Co. KG, Dortmund, Germany) and HK3 (Taros Chemicals GmbH & Co. KG, Dortmund, Germany) 30 min prior to palmitate exposure for 24 hours. The vehicle BSA was used according to the palmitate concentration and DMSO according to HK1 and HK3 concentration. 2 μM Staurosporine (Abcam, Cambridge, GB) was used as a positive and 100 μM Caspase 3/7 inhibitor (CI) (Cayman Chemicals) as a negative control.
Differences were analysed by one-way ANOVA.

Structure (SMILES)	upregulation of COL1A1 in TGF-β1-treated LX2 cells [1]	protein abundance of COL1A1 [1]	activity at 10 µM [2] [%]
Cc1cc(NC(=S)/C(C#N)=C(\O)C2CC2)ccc1[N+](=O)[O-] [HK3, 2-Cyano-3-cyclopropyl-3-hydroxy-N-(3-methyl-4-nitro-phenyl)-thioacrylamide]	completely suppressed	no impact	41.7
Cc1cc(NC(=S)/C(C#N)=C(\O)C2CC2)ccc1F [HK1, 2-Cyano-3-cyclopropyl-N-(4-fluoro-3-methyl-phenyl)-3-hydroxy-thioacrylamide]	completely suppressed	no impact	85.6
